ChEMBL document CHEMBL1145280, “Control of hepatitis C: a medicinal chemistry perspective” (J Med Chem, 2005)
Non-standard residues stand in square brackets, D forms with d. Residues, ends and D or L forms follow the SMILES beside them. *: point of attachment. Dip = N[C@H](C(=O)O)C(c1ccccc1)c1ccccc1; Hyp = O=C(O)[C@@H]1C[C@@H](O)CN1; Tic = O=C(O)[C@@H]1Cc2ccccc2CN1; X1 = O=C(O)C(=O)[C@H](CC(F)F)N*; Cha = N[C@@H](CC1CCCCC1)C(=O)O; Nle = CCCC[C@H](N)C(=O)O; Ahx = NCCCCCC(=O)O; Bn = c1ccc(C*)cc1

molecular target: T1, NS3 (Hepatitis C virus, UniProt A3EZJ3); experiment: Inhibitory concentration against hepatitis C virus NS4A binding region of NS3 protease; parameters: species or system Hepacivirus hominis; settings: not given
T1 sequence (A3EZJ3 whole entry): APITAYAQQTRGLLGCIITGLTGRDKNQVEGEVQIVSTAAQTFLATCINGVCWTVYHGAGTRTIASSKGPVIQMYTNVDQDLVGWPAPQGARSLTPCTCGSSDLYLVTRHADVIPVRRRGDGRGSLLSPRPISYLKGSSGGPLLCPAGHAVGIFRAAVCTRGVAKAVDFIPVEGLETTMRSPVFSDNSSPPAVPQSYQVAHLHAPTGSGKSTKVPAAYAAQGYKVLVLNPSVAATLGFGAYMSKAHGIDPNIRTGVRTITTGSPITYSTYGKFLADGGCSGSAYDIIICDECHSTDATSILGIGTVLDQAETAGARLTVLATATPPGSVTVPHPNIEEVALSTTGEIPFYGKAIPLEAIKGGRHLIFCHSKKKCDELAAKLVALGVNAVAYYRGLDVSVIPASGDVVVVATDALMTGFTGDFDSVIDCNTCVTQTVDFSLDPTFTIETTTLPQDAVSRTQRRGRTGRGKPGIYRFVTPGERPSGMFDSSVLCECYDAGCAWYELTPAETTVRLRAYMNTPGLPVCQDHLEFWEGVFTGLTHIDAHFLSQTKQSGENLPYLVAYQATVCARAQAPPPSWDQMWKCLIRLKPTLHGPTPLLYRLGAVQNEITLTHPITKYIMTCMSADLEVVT

Molecule	IC50 [µM]
CC[C@H](C)[C@H](NC(=O)[C@H](CCCNC(=N)N)NC(=O)CNC(=O)[C@@H](NC(=O)[C@@H](NC(=O)[C@@H](NC(=O)[C@@H](NC(=O)[C@H](CS)NC(=O)CCCCCNC(=O)CCCCCNC(=O)[C@H](CS)NC(=O)[C@H](CS)NC(=O)[C@@H](NC(=O)[C@@H](NC(=O)[C@H](CC(=O)O)NC(=O)[C@@H](N)CCC(=O)O)C(C)C)C(C)C)C(C)C)C(C)C)[C@@H](C)CC)C(C)C)C(=O)N[C@H](C(=O)N[C@@H](CC(C)C)C(=O)N[C@@H](CO)C(=O)NCC(=O)N[C@@H](CCCCN)C(=O)O)C(C)C (H-EDVVCC[Ahx][Ahx]CVVIVGRIVLSGK-OH)	0.6
CC[C@H](C)[C@H](NC(=O)[C@H](CCCN=C(N)N)NC(=O)CNC(=O)[C@@H](NC(=O)[C@@H](NC(=O)[C@@H](NC(=O)[C@@H](NC(=O)[C@H](CS)NC(=O)CCCCCNC(=O)[C@H](CS)NC(=O)[C@H](CS)NC(=O)[C@@H](NC(=O)[C@@H](NC(=O)[C@H](CC(=O)O)NC(=O)[C@@H](N)CCC(=O)O)C(C)C)C(C)C)C(C)C)C(C)C)[C@@H](C)CC)C(C)C)C(=O)N[C@H](C(=O)N[C@@H](CC(C)C)C(=O)N[C@@H](CO)C(=O)NCC(=O)N[C@@H](CCCCN)C(=O)N[C@@H](CCCCN)C(=O)O)C(C)C (H-EDVVCC[Ahx]CVVIVGRIVLSGKK-OH)	3

tested on: Internal ribosome entry site (IRES); experiment: Inhibitory concentration against hepatitis C virus internal ribosomal entry site; assay type: nucleic-acid assay, Hepacivirus hominis; settings: not given

Molecule	IC50 [µM]
Cc1cc2nc3ccc(N(C)C)cc3nc2cc1N	0.02
Nc1ccc(Nc2ccc(N)cc2)cc1	> 10
CN(C)c1ccc2c(c1)Sc1cc(N(C)C)ccc1N2C(=O)c1ccccc1	> 10
CN(C)c1ccc(Nc2ccc(N(C)C)cc2)cc1	2.19
Nc1ccc2nc3ccc(N)cc3[s+]c2c1 [THIONIN ACETATE]	2.86
CN(C)c1ccc(C(=O)c2ccc(N(C)C)cc2)cc1 [MICHLER'S KETONE]	> 10
Nc1ccc2c(c1)Oc1ncc(N)cc1C(=O)N2	> 10
Nc1ccc2[nH]c3ccc(N)cc3c2c1	> 10
Nc1ccc2c(c1)NC(=O)c1cc(N)cnc1O2	> 10
CCN(CC)c1ccc2[o+]c3cc(C)c(N)cc3nc2c1	1

molecular target: T1, NS3; experiment: Inhibitory concentration against hepatitis C virus NS3 protease; parameters: species or system Hepacivirus hominis; settings: not given

Molecule	IC50 [µg/mL]
CC(=O)OCCC/C(=C1/SC(=S)N(CC(=O)O)C1=O)c1ccc(Br)cc1	6.4

same assay, conditions: read-out: IC50

Molecule	IC50 [µM]
CCCC[C@H](NC(=O)[C@@H]1CCCN1C(=O)[C@H](CS)NC(=O)[C@H](CC1CCCCC1)NC(=O)[C@@H](NC(=O)[C@@H](NC(=O)[C@H](CCC(=O)O)NC(=O)[C@H](CC(=O)O)NC(C)=O)C(c1ccccc1)c1ccccc1)[C@@H](C)CC)C(=O)N[C@@H](CC(=O)O)C(=O)N[C@H](C(N)=O)C(C)C (Ac-DE[Dip]I[Cha]CP[Nle]DV-NH2)	1.8
Ac-DDIVPC-OH	71
CCCC[C@H](NC(=O)[C@@H]1Cc2ccccc2CN1C(=O)[C@H](CS)NC(=O)[C@H](CC1CCCCC1)NC(=O)[C@@H](NC(=O)[C@@H](NC(=O)[C@H](CCC(=O)O)NC(=O)[C@H](CC(=O)O)NC(C)=O)C(c1ccccc1)c1ccccc1)[C@@H](C)CC)C(=O)N[C@@H](CO)C(=O)N[C@@H](Cc1ccc(O)cc1)C(N)=O (Ac-DE[Dip]I[Cha]C[Tic][Nle]SY-NH2)	0.1
O=C1C=C2C(=CCOC2O)O1 (stereo not drawn) [PATULIN]	3.8
CCCC[C@H](NC(=O)[C@@H]1Cc2ccccc2CN1C(=O)[C@H](CS)NC(=O)[C@H](CC(C)C)NC(=O)[C@@H](NC(=O)[C@@H](NC(=O)[C@H](CCC(=O)O)NC(=O)[C@H](CCC(=O)O)NC(C)=O)C(C)C)C(C)C)C(=O)N[C@@H](CO)C(=O)N[C@@H](Cc1ccc(O)cc1)C(N)=O (Ac-EEVVLC[Tic][Nle]SY-NH2)	1
CC(=O)OC1OCC=C2OC(=O)C=C21 (stereo not drawn)	7.2
CC[C@H](C)[C@H](NC(=O)[C@@H](NC(=O)[C@H](CCC(=O)O)NC(=O)[C@H](CC(=O)O)NC(C)=O)C(c1ccccc1)c1ccccc1)C(=O)N[C@@H](CC1CCCCC1)C(=O)N[C@@H](CS)C(=O)N1CCC[C@H]1C(=O)N[C@@H](CC1CCCCC1)C(=O)N[C@@H](CC(=O)O)C(=O)N[C@H](C(N)=O)C(C)C (Ac-DE[Dip]I[Cha]CP[Cha]DV-NH2)	1.3
CCCCCCCCCCCCCNC(=O)c1c(O)cc(O)c([N+](=O)[O-])c1O	5.8
CC[C@H](C)[C@H](NC(=O)OC(C)(C)C)C(=O)N[C@@H](CC(C)C)C(=O)N[C@@H](CC(F)F)C(=O)C(=O)O	1
CC(=O)N[C@@H](CC(=O)O)C(=O)N[C@@H](CCC(=O)O)C(=O)N[C@@H](CC1CCCCC1)C(=O)N[C@H](C(=O)N1C[C@H](OCc2ccccc2)C[C@H]1C(=O)N[C@@H](CS)C(=O)O)C(C)C (Ac-DE[Cha]V[Hyp](Bn)C-OH)	0.033
O=C(Nc1ccc(Oc2ccc(Cl)c3ccccc23)c(Cl)c1)c1cc(Cl)ccc1NS(=O)(=O)c1ccc(Cl)cc1	6.5
CCCC(=O)c1cc2c(c(O)c1C)C(=O)C(=O)c1c(O)cccc1-2	7
O=C1NC(=S)S/C1=C/c1cc([N+](=O)[O-])ccc1Sc1ccc(Cl)cc1	3.2
CC(C)C[C@H](NC(=O)[C@H](CC(=O)O)NC(=O)[C@H](CC1CCCCC1)NC(=O)[C@@H]1CCCC[C@H]1C(=O)O)C(N)=O	15
CC[C@H](C)[C@H](NC(=O)OCc1ccccc1)C(=O)N[C@@H](CC(C)C)C(=O)N[C@@H](CC(F)F)C(=O)C(=O)O	1.7
O=C1C=C2C(=CCOC2OC(=O)c2cccc(Br)c2)O1 (stereo not drawn)	12.6
CC(=O)N[C@@H](CC(=O)O)C(=O)N[C@@H](CCC(=O)O)C(=O)N[C@@H](CC1CCCCC1)C(=O)N[C@H](C(=O)N1C[C@@H](OCc2ccccc2)C[C@H]1C(=O)NC1(C(=O)O)CC1)C(C)C	0.051
O=C(Nc1cc(Cl)ccc1Oc1ccc2ccccc2c1Cl)c1cc(Cl)cc(Br)c1O	6.2
COc1ccc2c(O[C@@H]3C[C@H]4C(=O)N[C@]5(C(=O)O)C[C@H]5/C=C\CCCCC[C@H](NC(=O)OC5CCCC5)C(=O)N4C3)cc(-c3csc(NC(C)C)n3)nc2c1 [CILUPREVIR]	3
C=C[C@H]1C[C@]1(NC(=O)[C@@H]1C[C@@H](Oc2cc(-c3ccccc3)nc3ccccc23)CN1C(=O)[C@@H](NC(=O)[C@@H](NC(C)=O)C1CCCCC1)C(C)C)C(=O)O	0.013

molecular target: T1, NS3; experiment: Inhibitory concentration against hepatitis C virus helicase; parameters: species or system Hepacivirus hominis; settings: not given

Molecule	IC50 [µM]
NC(=O)c1ncn([C@@H]2O[C@H](COP(=O)(O)OP(=O)(O)O)[C@@H](O)[C@H]2O)n1	250
COc1cccc2c1C(=O)c1c(O)c3c(c(O)c1C2=O)C[C@@](O)(C(=O)CO)C[C@@H]3O[C@H]1C[C@H](N)[C@@H](O)[C@H](C)O1 [EPIRUBICIN]	0.75
O=C(CCCCC(=O)Nc1ccc(-c2nc3ccccc3[nH]2)cc1)Nc1ccc(-c2nc3ccccc3[nH]2)cc1	0.7
COC(=O)[C@@H]1c2cc3c(c(O)c2[C@@H](O[C@@H]2O[C@@H](C)[C@H](OC)[C@@](C)(OC)[C@H]2OC)C[C@]1(C)O)C(=O)c1c(O)cc2c(c1C3=O)O[C@@H]1O[C@@]2(C)[C@H](O)[C@@H](N(C)C)[C@@H]1O [NOGALAMYCIN]	0.1
c1cc(CN2CCC(C3=NC4CCCCC4N3)CC2)ccc1CN1CCC(C2=NC3CCCCC3N2)CC1 (stereo not drawn)	7
OC[C@H]1O[C@@H](n2nnc3cc(Cl)c(Cl)cc32)[C@H](O)[C@@H]1O	1.5
Brc1c(Br)c(Br)c2[nH]nnc2c1Br [TETRABROMOBENZOTRIAZOLE]	20
NC(=O)c1ncn([C@@H]2O[C@H](CO[P@@](=O)(O)O[P@](=O)(O)OP(=O)(O)O)[C@@H](O)[C@H]2O)n1 [RTP]	180
N=c1nc(N)c2ncn([C@H]3O[C@@H](COP(=O)(O)OP(=O)(O)OP(=O)(O)O)[C@H](O)[C@@H]3O)c2c(N)n1	0.55
Nc1nc(=O)c2c(ncn2COCCOCc2ccccc2)c(=O)[nH]1	5.5
Nc1nc(=O)c2c(ncn2C2O[C@H](CO)C(O)C2O)c(=O)[nH]1 (single isomer, unassigned)	12
O=C1NNC(=O)c2c(ncn2[C@H]2O[C@@H](COP(=O)(O)OP(=O)(O)OP(=O)(O)O)[C@H](O)[C@@H]2O)N1	1.5
CC(=O)O[C@H]1C(=O)[C@@]2(C)[C@H]([C@H](OC(=O)c3ccccc3)[C@]3(O)C[C@H](OC(=O)[C@H](O)[C@@H](NC(=O)c4ccccc4)c4ccccc4)C(C)=C1C3(C)C)[C@]1(OC(C)=O)CO[C@@H]1C[C@@H]2O [PACLITAXEL]	> 1

molecular target: Genome polyprotein (Hepatitis C virus genotype 1a (isolate 1) (HCV), UniProt P26664); experiment: Inhibitory concentration against hepatitis C virus polymerase; parameters: species or system Hepacivirus hominis; settings: not given
Sequence (P26664 2421-3011 limits assumed): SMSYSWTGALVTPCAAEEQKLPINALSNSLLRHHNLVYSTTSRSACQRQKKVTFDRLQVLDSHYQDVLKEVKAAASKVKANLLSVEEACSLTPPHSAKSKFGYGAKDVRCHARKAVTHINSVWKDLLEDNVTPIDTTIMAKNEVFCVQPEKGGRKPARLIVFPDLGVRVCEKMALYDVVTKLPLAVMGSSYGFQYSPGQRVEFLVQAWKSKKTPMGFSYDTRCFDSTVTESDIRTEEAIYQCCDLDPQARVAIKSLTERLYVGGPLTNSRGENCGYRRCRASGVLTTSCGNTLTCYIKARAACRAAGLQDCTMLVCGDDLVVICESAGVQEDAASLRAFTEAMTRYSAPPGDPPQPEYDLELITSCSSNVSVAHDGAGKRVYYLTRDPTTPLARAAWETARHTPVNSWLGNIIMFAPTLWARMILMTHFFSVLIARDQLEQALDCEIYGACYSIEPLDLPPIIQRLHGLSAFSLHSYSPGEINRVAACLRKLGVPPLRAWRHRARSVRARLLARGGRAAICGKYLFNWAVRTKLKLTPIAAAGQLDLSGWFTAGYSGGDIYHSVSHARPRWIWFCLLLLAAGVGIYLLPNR

Molecule	IC50 [µM]
N#Cc1ccc(Br)cc1Oc1ccccc1C(=O)CC(=O)C(=O)O	0.35
N#Cc1ccc(Br)cc1-c1cccc(C(=O)CC(=O)C(=O)O)c1	0.1
O=C(O)C(=O)CC(=O)c1ccccc1	5.7
N#Cc1c(Cl)cc(Cl)cc1-c1cccc(C(=O)CC(=O)C(=O)O)c1	0.045
O=C(N[C@@H](Cc1c[nH]c2ccccc12)C(=O)O)c1ccc2c(c1)nc(-c1ccoc1)n2C1CCCCC1	< 1
O=C(O)c1ccc2c(c1)nc(-c1ccc(OCc3cc(C(=O)N4CCC(O)CC4)ccc3-c3ccc(Cl)cc3)cc1F)n2C1CCCCC1	< 10
COc1ccc(CCNC(=O)c2ccc3c(c2)nc(-c2ccccn2)n3C2CCCCC2)cc1OC	12
N#Cc1c(Cl)cccc1-c1cccc(C(=O)CC(=O)C(=O)O)c1	0.11
CC(C)CCn1c(=O)c(C2=NS(=O)(=O)c3ccccc3N2)c(O)c2ccccc21	0.8
O=C(NCc1ccccc1Cl)Nc1ccsc1-c1nc(O)c(O)c(C(=O)O)n1	0.1
O=C(O)c1ccc2c(c1)nc(-c1ccccn1)n2C1CCCCC1	4.3

molecular target: T1, NS3; experiment: Inhibitory constant against hepatitis C virus NS3 protease; parameters: species or system Hepacivirus hominis; settings: not given

Molecule	Ki [µM]
Ac-DEMEEC-OH	0.6
O=C(O)[C@H](Cc1ccccc1)N(Cc1ccc(-c2cc3ccccc3o2)s1)C(=O)c1ccc(Cl)cc1Cl	2.2
CC(=O)N[C@@H](CC(=O)O)C(=O)N[C@@H](CCC(=O)O)C(=O)N[C@H](C(=O)N[C@@H](CCC(=O)O)C(=O)N[C@@H](CC1CCCCC1)C(=O)N[C@@H](CS)C(=O)O)C(c1ccccc1)c1ccccc1 (Ac-DE[Dip]E[Cha]C-OH)	0.04
CC(=O)N[C@@H](CC(=O)O)C(=O)N[C@@H](CCC(=O)O)C(=O)N[C@H](C(=O)N[C@@H](CCC(=O)O)C(=O)N[C@@H](CC1CCCCC1)C(=O)N[C@@H](CC(F)F)C(=O)C(=O)O)C(c1ccccc1)c1ccccc1 (Ac-DE[Dip]E[Cha]-X1)	0.01
O=C(O)[C@H](Cc1ccccc1)N(Cc1cccc(C(F)(F)F)c1)C(=O)c1ccc(Cl)cc1Cl	2.2
CC(C)COC(=O)N[C@@H](CCC(=O)O)C(=O)N[C@@H](CC(C)C)C(=O)N[C@@H](CC(F)F)C(=O)NCCc1ccc(C(=O)O)cc1Cl	0.6
